Measured values published in PubChem BioAssay (NCI).
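Each compound was tested at five concentrations against cells in 96-well plates for 48 hours. The concentration for full growth arrest is given as TGI.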

Tests used:
Test in all cases: inhibition of tumour cell growth, NCI panel, 48 h
[1] = tested on: BT-549 breast
[2] = tested on: CAKI-1 renal
[3] = tested on: CCRF-CEM leukemia
[4] = tested on: HT29 colon
[5] = tested on: KM12 colon
[6] = tested on: LOX IMVI melanoma
[7] = tested on: M14 melanoma
[8] = tested on: MDA-MB-435
[9] = tested on: MDA-N
[10] = tested on: NCI-H23 lung
[11] = tested on: NCI/ADR-RES ovarian
[12] = tested on: OVCAR-3 ovarian
[13] = tested on: SF-539 CNS
[14] = tested on: SK-MEL-28 melanoma
[15] = tested on: TK-10 renal

Structure (SMILES) | TGI [1] [µM] | TGI [2] [µM] | TGI [3] [µM] | TGI [4] [µM] | TGI [5] [µM] | TGI [6] [µM] | TGI [7] [µM] | TGI [8] [µM] | TGI [9] [µM] | TGI [10] [µM] | TGI [11] [µM] | TGI [12] [µM] | TGI [13] [µM] | TGI [14] [µM] | TGI [15] [µM]
COc1cc(NS(C)(=O)=O)ccc1Nc1c2ccccc2nc2c1[nH]c1ccc(NC3OC(CO)C(O)C(O)C3O)cc12 (stereo not given) | 5.69 | 0.091 | 3.12 | 0.938 | 1.21 | 1.18 | 0.971 | 7.06 | 2.71 | 0.27 | 45.8 | 2 | 0.0405 | 1.96 | 0.7
O=C(Oc1ccccn1)c1cc2cc(CCl)ccc2oc1=O | 49.7 | 77.3 | > 100 | > 100 | > 100 | > 100 | > 100 | > 100 | > 100 | 62.7 | 75.5 | 38.1 | > 100 | > 100 | > 100
Cc1ccnc2[nH]c3ccccc3c(=O)c12 | 86.7 | 38.5 | > 100 | 36 | 50.3 | > 100 | > 100 | 41.8 | 47 | 90.6 | > 100 | 72.1 | 46.6 | 47.5 | 36.3
